“Also recorded” adds a separate entry of the source.
System: maternal autoantibodies (plasma from mothers of ASD and TD children)
Assay: NSE 15-mer peptide microarray epitope mapping probed with maternal plasma
Type: binding, human
Conditions: for Specific binding: group whose antibodies recognize the sequence; for ASD + N = 19 (number of positive samples) / ASD + N = 8 (number of positive samples): mothers of ASD children; for ASD + N = 19 (number of positive samples) / TD + N = 10 (number of positive samples) / ASD + N = 8 (number of positive samples) / TD + N = 11 (number of positive samples): positive if FI >200; for TD + N = 10 (number of positive samples) / TD + N = 11 (number of positive samples): mothers of TD children

Substance | Specific binding (ELISA positive samples) | ASD + N = 19 (number of positive samples) (ELISA positive samples) | TD + N = 10 (number of positive samples) (ELISA positive samples) | Specific binding (ELISA negative samples) | also measured
218 (GGFAPNILENSEALE; listed as Homo sapiens) [compound 218] | ASD | 3 | 0 | – | –
252 (DVAASEFYRDGKYDL; listed as Homo sapiens) [compound 252] | ASD | 3 | 0 | – | –
279 (TGDQLGALYQDFVRD; listed as Homo sapiens) [compound 279] | ASD | 5 | 0 | – | –
280 (GDQLGALYQDFVRDY; listed as Homo sapiens) [compound 280] | ASD | 3 | 0 | – | –
281 (DQLGALYQDFVRDYP; listed as Homo sapiens) [compound 281] | ASD | 3 | 0 | – | –
288 (QDFVRDYPVVSIEDP; listed as Homo sapiens) [compound 288] | – | – | – | ASD | ASD + N = 8 (number of positive samples) (ELISA negative samples): 3; TD + N = 11 (number of positive samples) (ELISA negative samples): 0
289 (DFVRDYPVVSIEDPF; listed as Homo sapiens) [compound 289] | ASD | 3 | 0 | – | –
290 (FVRDYPVVSIEDPFD; listed as Homo sapiens) [compound 290] | – | – | – | ASD and TD | ASD + N = 8 (number of positive samples) (ELISA negative samples): 3; TD + N = 11 (number of positive samples) (ELISA negative samples): 1
291 (VRDYPVVSIEDPFDQ; listed as Homo sapiens) [compound 291] | – | – | – | ASD and TD | ASD + N = 8 (number of positive samples) (ELISA negative samples): 4; TD + N = 11 (number of positive samples) (ELISA negative samples): 4
292 (RDYPVVSIEDPFDQD; listed as Homo sapiens) [compound 292] | – | – | – | ASD and TD | ASD + N = 8 (number of positive samples) (ELISA negative samples): 5; TD + N = 11 (number of positive samples) (ELISA negative samples): 2
293 (DYPVVSIEDPFDQDD; listed as Homo sapiens) [compound 293] | – | 6 | 4 | ASD and TD | ASD + N = 8 (number of positive samples) (ELISA negative samples): 6; TD + N = 11 (number of positive samples) (ELISA negative samples): 7
294 (YPVVSIEDPFDQDDW; listed as Homo sapiens) [compound 294] | – | 8 | 4 | ASD and TD | ASD + N = 8 (number of positive samples) (ELISA negative samples): 5; TD + N = 11 (number of positive samples) (ELISA negative samples): 7
295 (PVVSIEDPFDQDDWA; listed as Homo sapiens) [compound 295] | – | 5 | 2 | ASD and TD | ASD + N = 8 (number of positive samples) (ELISA negative samples): 4; TD + N = 11 (number of positive samples) (ELISA negative samples): 3
296 (VVSIEDPFDQDDWAA; listed as Homo sapiens) [compound 296] | – | 4 | 1 | ASD and TD | ASD + N = 8 (number of positive samples) (ELISA negative samples): 4; TD + N = 11 (number of positive samples) (ELISA negative samples): 2
297 (VSIEDPFDQDDWAAW; listed as Homo sapiens) [compound 297] | – | 4 | 1 | ASD and TD | ASD + N = 8 (number of positive samples) (ELISA negative samples): 2; TD + N = 11 (number of positive samples) (ELISA negative samples): 2
298 (SIEDPFDQDDWAAWS; listed as Homo sapiens) [compound 298] | ASD | 4 | 0 | – | –

Substance | Specific binding (ELISA positive samples) | ASD + N = 19 (number of positive samples) (ELISA positive samples) | TD + N = 10 (number of positive samples) (ELISA positive samples) | Specific binding (ELISA negative samples) | also measured
299 (IEDPFDQDDWAAWSK; listed as Homo sapiens) [compound 299] | ASD | 2 | 0 | – | –
407 (RSERLAKYNQLMRIE; listed as Homo sapiens) [compound 407] | ASD | 3 | 0 | – | –
408 (SERLAKYNQLMRIEE; listed as Homo sapiens) [compound 408] | ASD | 6 | 0 | – | –
409 (ERLAKYNQLMRIEEE; listed as Homo sapiens) [compound 409] | ASD | 7 | 0 | – | –
410 (RLAKYNQLMRIEEEL; listed as Homo sapiens) [compound 410] | ASD | 5 | 0 | – | –
411 (LAKYNQLMRIEEELG; listed as Homo sapiens) [compound 411] | ASD | 3 | 0 | – | –
412 (AKYNQLMRIEEELGD; listed as Homo sapiens) [compound 412] | ASD | 3 | 0 | – | –
413 (KYNQLMRIEEELGDE; listed as Homo sapiens) [compound 413] | ASD | 3 | 0 | – | –
416 (QLMRIEEELGDEARF; listed as Homo sapiens) [compound 416] | ASD | 3 | 0 | – | –
DYPVVSIEDPFDQDD (listed as Homo sapiens) [ES 293] | – | – | – | – | Specific binding (ELISA positive samples, listed as SEQ ID NO:7): recognized by plasma from both sample groups; also recorded: recognized by antibodies in both experimental groups
PVVSIEDPFDQDDWA (listed as Homo sapiens) [ES 295] | – | – | – | – | Specific binding (ELISA positive samples, listed as SEQ ID NO:9): recognized by plasma from both sample groups; also recorded: recognized by antibodies in both experimental groups
QDFVRDYPVVSIEDP (listed as Homo sapiens) [ES 288] | – | – | – | ASD-specific | –
VSIEDPFDQDDWAAW (listed as Homo sapiens) [ES 297] | – | – | – | – | Specific binding (ELISA positive samples, listed as SEQ ID NO:11): recognized by plasma from both sample groups; also recorded: recognized by antibodies in both experimental groups
VVSIEDPFDQDDWAA (listed as Homo sapiens) [ES 296] | – | – | – | – | Specific binding (ELISA positive samples, listed as SEQ ID NO:10): recognized by plasma from both sample groups; also recorded: recognized by antibodies in both experimental groups
YPVVSIEDPFDQDDW (listed as Homo sapiens) [ES 294] | – | – | – | – | Specific binding (ELISA positive samples, listed as SEQ ID NO:8): recognized by plasma from both sample groups; also recorded: recognized by antibodies in both experimental groups

From patent US20220324913A1, “ANTIGENIC NEURON SPECIFIC ENOLASE PEPTIDES FOR DIAGNOSING AND TREATING AUTISM” (THE REGENTS OF THE UNIVERSITY OF CALIFORNIA, priority 2019, published 2022)
